In US9447075B2, “Pyridazine derivatives as EAAT2 activators” (The Brigham and Women's Hospital, Inc., priority 2011, dated 2016):

What was measured:
[1] = tested on: EAAT2 mRNA; assay: EAAT2 mRNA in brain by quantitative real-time RT-PCR after i.p. administration; type: in vivo, mouse; conditions: FIG. 8D
Protocol: (§1) We next examined EAAT2 protein levels and glutamate uptake activities in brain following i.p. administration of Compound 212320 in C57BL/6 mice. Plasma membrane vesicles were prepared from mouse forebrains to measure functional EAAT2 protein. After a single i.p. dose of Compound 212320 at 40 mg/kg, EAAT2 protein levels and associated glutamate uptake increased to ˜1.5-2-fold at 2 hr and to ˜2-3-fold from 8 hr to 24 hr post-injection (FIG. 8B). Even at 72 hr, a ˜1.5 fold increase in EAAT2 protein levels could still be detected (data not shown). In addition, Compound 212320-induced EAAT2 protein levels and glutamate uptake were both dose-dependent (FIG. 8C). This induction was not due to transcriptional activation because EAAT2 mRNA was not increased as measured by quantitative real-time RT-PCR (FIG. 8D). We compared ceftriaxone (200 mg/kg), which increases EAAT2 expression through transcriptional activation, with Compound 212320 (40 mg/kg) that activates EAAT2 translation.

[2] = target: EphA5 (Homo sapiens, UniProt P54756); assay: Protein kinase profiling: EphA5; type: biochemical; conditions: read-out: EphA5 inhibited
EphA5, sequence (P54756 25-1037, species assumed): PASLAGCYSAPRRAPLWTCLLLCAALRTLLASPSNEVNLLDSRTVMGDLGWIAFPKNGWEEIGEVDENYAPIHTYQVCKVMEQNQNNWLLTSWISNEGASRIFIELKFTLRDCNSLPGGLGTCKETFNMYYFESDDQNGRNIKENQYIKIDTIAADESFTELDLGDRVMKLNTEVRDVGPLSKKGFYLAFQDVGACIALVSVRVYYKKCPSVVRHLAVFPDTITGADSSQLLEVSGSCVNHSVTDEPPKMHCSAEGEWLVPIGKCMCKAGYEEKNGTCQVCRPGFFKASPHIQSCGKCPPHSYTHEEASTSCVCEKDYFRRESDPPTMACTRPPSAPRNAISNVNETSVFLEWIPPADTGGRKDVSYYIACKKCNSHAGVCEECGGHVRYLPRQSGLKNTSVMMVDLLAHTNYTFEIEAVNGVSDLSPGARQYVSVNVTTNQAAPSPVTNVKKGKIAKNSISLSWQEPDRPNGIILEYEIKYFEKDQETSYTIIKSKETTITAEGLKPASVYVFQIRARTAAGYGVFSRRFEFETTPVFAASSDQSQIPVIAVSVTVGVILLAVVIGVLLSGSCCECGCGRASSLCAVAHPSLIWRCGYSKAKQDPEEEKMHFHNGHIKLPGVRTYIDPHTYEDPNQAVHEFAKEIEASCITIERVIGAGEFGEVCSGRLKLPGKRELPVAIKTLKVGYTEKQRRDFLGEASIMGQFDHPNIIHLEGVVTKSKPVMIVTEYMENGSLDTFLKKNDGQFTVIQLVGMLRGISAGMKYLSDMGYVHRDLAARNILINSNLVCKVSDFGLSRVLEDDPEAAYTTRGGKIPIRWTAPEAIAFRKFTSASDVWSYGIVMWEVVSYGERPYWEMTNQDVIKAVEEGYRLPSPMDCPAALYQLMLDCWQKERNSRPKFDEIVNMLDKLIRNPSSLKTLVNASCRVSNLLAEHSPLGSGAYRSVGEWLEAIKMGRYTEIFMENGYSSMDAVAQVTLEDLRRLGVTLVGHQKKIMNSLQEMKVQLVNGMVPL
Protocol: To assess Compound 212320's biological activity and selectivity, we performed an in vitro side effect profiling study. Seventy-one targets were tested at 10 μM in duplicate. These targets include neurotransmitter related receptors (30), steroids (2), ion channels (6), second messenger (1), prostaglandins (3), growth factors/hormones (4), brain/gut peptides (13), enzymes (5) and cytochrome p450 (7). […] Additionally, we performed a protein kinase profiling study. Compound 212320 was tested at 1 and 10 μM against 288 kinases. […] These studies indicate that Compound 212320 has high specificity and low side-effects/toxicity potential.

[3] = tested on: male C57/BL6 mice, focal cerebral ischemia; assay: Stroke model, transient middle cerebral artery occlusion (MCAO); type: in vivo, mouse; conditions: 24 hours after surgery
Protocol: Compound 212320 was evaluated in the transient middle cerebral artery occlusion (MCAO), a well-characterized model of focal cerebral ischemia (experimental stroke). Adult male C57/BL6 mice (60-70 days old) were used. The internal carotid artery was occluded for 60 min. Following reperfusion, mice received 40 mg/kg of Compound 212320 by intraperitoneal injection. 24 hours after surgery, brains were removed and processed to determine infarct volume.
Mice received 40 mg/kg Compound 212320 or vehicle intraperitoneally and 24 h after stroke, brains were processed to measure infarct volume.

[4] = tested on: EAAT2; assay: [3H]glutamate uptake assay in PA-EAAT2 cells; type: cell-based, human; conditions: PA-EAAT2 cells (FIG. 6D)
Protocol: (§2) Characterization and efficacy studies of a compound, Compound 212320 (FIG. 6A) is shown. […] In the absence of serum, PA-EAAT2 cells express low amounts of EAAT2 protein, although the recombinant EAAT2 mRNA are expressed (translational silencing); however, EAAT2 protein levels are increased when an activator is added to the culture (translational activation). This cell line was used for high-throughput screening to identify EAAT2 translational activators. To prioritize candidate compounds, we initially evaluated activation of EAAT2 protein in PA-EAAT2 cells. Promising compounds were further evaluated in primary dissociated neuron and astrocyte mixed cultures and then in mice. FIG. 6 presents the characterization of Compound 212320 in PA-EAAT2 cells. Compound 212320 increased EAAT2 protein levels in a dose—(FIG. 6B) and time—(FIG. 6C) dependent manner. Importantly, the induction occurred in a short amount of time (within 1-2 hr) and was sustained even up to 72 hr (data not show). Additionally, induction occurred at low nanomolar concentrations. […] (FIG. 6D).

[5] = tested on: SOD1(G93A) mice; assay: ALS model (SOD1(G93A) mouse model); type: in vivo
Source text: Guidelines established by the ENMC Group were followed (see Ludolph, A. C., et al. Guidelines for the preclinical in vivo evaluation of pharmacological active drugs for ALS/MND: report on the 142nd ENMC international workshop. Amyotroph Lateral Scler 8, 217-223 (2007))^1, which included the use of gender matched mice (i.e. equal number of males and females in each experimental group), use of littermate matched mice (i.e. the littermate of a therapeutic mouse is used in the control group) and use of mice with the same copy number of the SOD1 transgene. SOD1(G93A) mice received Compound 212320 (shown below, shown also as compound 7-4 in FIG. 1) at 40 mg/kg in 500 μl of 1% DMSO/1% polyethylene glycol 400/0.2% Tween 80/10% hydroxypropyl-β-cyclodextrin/saline starting at 84 days of age (6 times/week, at the same time each day) until death or harvested at 120-days of age for analysis. Western blotting, cresyl violet staining and immunofluorescence staining were performed as previously described in Chang, Y., et al. Messenger RNA oxidation occurs early in disease pathogenesis and promotes motor neuron degeneration in ALS. PLoS One 3, e2849 (2008).
Motor function was determined by measuring peak force using a digital grip dynamometer outfitted with a hind limb pull bar assembly (Columbus Instruments). Measurements started from 70 days of age (three times a week, on the same day of each week and at the same time of each scheduled day) until the mouse loses all strength. Six repetitions were conducted and the average was determined for each point. The examiners were unaware of the treatment of the mice. Food and water were placed on the cage floor when mice began to show motor deficits. […] This time point was recorded as the time of death for survival in days.
Referring to FIG. 2, Compound 212320 delayed motor function decline and extended life span in SOD1(G93A) mice. […] Data were analyzed using the dynamic fitting nonlinear regression analysis. […] Data were analyzed using Kaplan-Meier survival analysis. […] Spinal cords from 120-day-old mice were analyzed.

[6] = tested on: EAAT2; assay: EAAT2 protein levels and glutamate uptake in forebrain plasma membrane vesicles after i.p. administration; type: in vivo, mouse; conditions: for EAAT2 protein levels increase / Glutamate uptake increase: single i.p. 40 mg/kg
Protocol: as §1

[7] = tested on: EAAT2; assay: Immunofluorescent staining of induced EAAT2 protein in PA-EAAT2 cells; type: cell-based, human; conditions: PA-EAAT2 cells (FIG. 6E)
Protocol: as §2

[8] = i.p., 40 mg/kg daily from 84 days of age
[9] = from 8 hr to 24 hr post-injection

Cc1ccccc1CSc1ccc(-c2ccccn2)nn1 [Compound 7-4]
EAAT2 mRNA [1]: not increased | inhibition at 10 µM [2]: 44% | Decrease of infarct volume ([3]; 40 mg/kg i.p. following reperfusion, vs vehicle): 57% | Infarct volume ([3]; 40 mg/kg i.p., n=6): 6.8±1.6 | Glutamate uptake function [4]: correlated to increased EAAT2 protein levels | EAAT2 protein levels in spinal cord (western blot) ([5]; 120-day-old mice): restores | Life span (survival) [5, 8]: extended | Motor function decline (grip strength) [5, 8]: delayed | EAAT2 induction compared with ceftriaxone ([6]; 40 mg/kg vs ceftriaxone 200 mg/kg, a single dose after 24 hr): greater EAAT2 induction than ceftriaxone | Induced EAAT2 protein levels, dose dependence ([6]; FIG. 8C): dose-dependent | Induced glutamate uptake, dose dependence ([6]; FIG. 8C): dose-dependent | EAAT2 protein levels increase ([6]; 2 hr post-injection): 1.5-2 fold | Glutamate uptake increase ([6]; 2 hr post-injection): 1.5-2 fold | EAAT2 protein levels increase ([6]; 72 hr, data not shown): ~1.5 fold | EAAT2 protein levels increase [6, 9]: 2-3 fold | Glutamate uptake increase [6, 9]: 2-3 fold | Localization of induced EAAT2 protein [7]: properly localized to the plasma membrane
